Several values for one entry are separate records, joined by “and”; a condition that tells them apart may be missing. Equal entries are not always repeated. Entries after “also recorded” stand apart in the source; their conditions may differ. Where two headings read alike, the source gives them in different places. Bounds are passed on as bounds.

Holding throughout (format): cell-based, human
For one experiment, the system named is A549. As to the kind of experiment: MTS cell viability assay, A549. The settings on record: NSCLC cell line A549, MTS, 48 h; for IC50: read-out: IC50 (±SD) A549. The method, then: (§1) The effects of the extracts and isolated saponins on cell growth were evaluated by the MTS assay (3-(4,5-dimethylthiazol-2-yl)-5(3-carboxymethoxyphenyl)-2-(4-sulfopheny)-2H-tetrazolium; Promega, Madison, WI, United States) on human tumor cell lines ([Mosmann, 1983]; [Cory et al., 1991]; [Malich et al., 1997]). In a test experiment of cell inhibition, the cell inhibition effects of six crude extracts (100 μg/mL) and six isolated saponins (40 μM) were roughly measured to ascertain whether to measure the IC50 value by MTS assay.
(§2) Each well of a 96-well plate (Multiskan Fc, Therm) was seeded with 100 μL cells at a density of 3,000–5,000 cells per well, with the cell suspension containing 10% (v/v) fetal bovine serum (DMEM or RMPI1640, Biological Industries, Kibbutz Beit-Haemek, Israel). After 12–24 h of inoculation and culture at 37°C, the extracts or saponins were added at the indicated concentrations after being dissolved in dimethyl sulfoxide (DMSO, Biological Industries, Kibbutz Beit-Haemek, Israel) in a final volume of 200 μL per well, each in triplicate. The six crude extracts were added at concentrations of 100, 20, 4, 0.8, and 0.16 μg/mL; the six isolated saponins were added at concentrations of 10, 5, 2.5, 1.25, 0.625, and 0.3125 μM. After culture for 48 h at 37°C, 20 μL of MTS solution and 100 μL of DMEM were added to each well; three blank wells were set aside with 20 μL MTS solution and 100 μL DMEM. After an incubation for another 2–4 h, the absorbance at 492 nm was measured. Cisplatin and Paclitaxel (MeilunBio) were used as a positive control in each experiment. The cell growth curve was drawn with the concentration as the abscissa and the cell survival rate as the ordinate. The IC50 value of each saponin was calculated by the two-point method ([Reed and Muench, 1938]).

For the next experiment, the system named is SMMC-7721. The experiment in a line: MTS cell viability assay, SMMC-7721. Conditions: liver cancer cell line SMMC-7721, MTS, 48 h; for IC50: read-out: IC50 (±SD) SMMC-7721. The method, then:
as §1, §2

For a further experiment, the system named is BEAS-2B. As to the kind of experiment: MTS cell viability assay, normal lung cell BEAS-2B. Conditions: normal lung cell BEAS-2B, MTS, read-out: IC50 (±SD) BEAS-2B. As for the experimental part: (§3) Three human liver cancer cell lines (SMMC-7721, HepG2, and SK-HEP-1) and the non-small-cell lung cancer (NSCLC) cell line A549 were obtained from ATCC (Manassas, VA, United States). Normal human cell lines (liver cell line LO2 and lung cell line BEAS-2B) were obtained from ATCC (Manassas, VA, United States). Cells were cultured in RMPI-1640 or DMEM medium (Biological Industries, Kibbutz Beit-Haemek, Israel) supplemented with 10% (v/v) fetal bovine serum (Biological Industries) at 37°C in a humidified atmosphere with 5% (v/v) CO2.
as §1, §2

For a further experiment, the system named is LO2. As to the kind of experiment: MTS cell viability assay, normal liver cell LO2. The settings on record: normal liver cell LO2, MTS, read-out: IC50 (±SD) LO2. The method, then: as §3, §1, §2
In a further experiment the test system is HepG2. The experiment in a line: MTS cell viability assay, HepG2. The settings on record: liver cancer cell line HepG2, MTS, 48 h; for IC50: read-out: IC50 (±SD) HepG2. The method, then:
as §1, §2

The subject of another experiment is SK-HEP-1. As to the kind of experiment: MTS cell viability assay, SK-HEP-1. The settings on record: liver cancer cell line SK-HEP-1, MTS, 48 h; for IC50: read-out: IC50 (±SD) SK-HEP-1. As for the experimental part:
as §1, §2

The test system of experiment [1] is A549 cells. As to the kind of experiment: Cell cycle analysis (PI staining, flow cytometry), A549. The settings on record: A549, 24 h; saponins 1 and 5 at 0.5 μM, other four at 1 μM. As for the experimental part: (§4) Cell cycle distribution was determined by propidium iodide (PI, BD, Pharmingen) staining ([Kong et al., 2016]; [Wei et al., 2021]). Briefly, three cancer cell lines were cultured in six-well plates at a density of 3 × 10^5 cells per well for 24 h before treatment with each of the six isolated saponins at the indicated concentrations for 24 h. The cells were collected, centrifuged, and washed twice with ice-cold PBS. Cells were fixed in 70% (v/v) ice-cold ethanol at 4°C overnight and washed again in PBS twice. The cells were incubated with 100 μL RNase A at 37°C for 30 min in the dark, after which 400 μL PI was added to the cells with RNase A in the dark at 4°C for 15 min. The cell cycle stage was analyzed by flow cytometry (BD, FACSCelesta, United States) with FLOWJO software (FlowJo, Ashland, OR, United States).

Experiment [2] has as its system A549 cells. The experiment in a line: Apoptosis by annexin V-FITC/PI staining, A549. Conditions: A549, saponins 5 μM, Figure 7. The method, then: (§5) Double staining with annexin V-fluorescein isothiocyanate (FITC) and PI was used to determine the effects of the six saponins on cell apoptosis by flow cytometry ([Homburg et al., 1995]; [Vermes et al., 1995]; [Casciola-Rosen et al., 1996]). The effects of the six isolated saponins on apoptosis were determined using an annexin V-FITC apoptosis kit (BD, Pharmingen); the chemotherapy drug doxorubicin (DOX, Beyotime Institute of Biotechnology, Shanghai, China) was used as the positive control. Cells were cultured in six-well plates at a density of 3 × 10^5 cells per well for 24 h before being treated with each of the six isolated saponins at the indicated concentrations for 24 h. The cells were collected, centrifuged, and washed twice with ice-cold phosphate-buffered saline (PBS). The cells were stained with annexin V-FITC and PI for 15 min in the dark at room temperature before analysis by flow cytometry (BD, FACSCelesta, America). Annexin V-FITC^+ and PI^+ (Q2) were considered late-stage apoptotic cells, while annexin V-FITC^+ and PI^− (Q3) cells were considered early-stage apoptotic cells. Annexin V-FITC^– and PI^+ (Q1) were necrotic or mechanically damaged cells, and annexin V-FITC^– and PI^− (Q4) cells were healthy living cells.

The test system of experiment [3] is HepG2 cells. The experiment in a line: Cell cycle analysis (PI staining, flow cytometry), HepG2. Conditions: HepG2, 24 h, 1 μM. As for the experimental part: as §4
For experiment [4], the system named is HepG2 cells. The experiment in a line: Apoptosis by annexin V-FITC/PI staining, HepG2. The settings on record: HepG2, saponins 5 μM, Figure 7. The method, then: as §5
The test system of a further experiment is SMMC-7721 cells. The experiment in a line: Apoptosis by annexin V-FITC/PI staining, SMMC-7721. Conditions: SMMC-7721, saponins 5 μM, Figure 7. As for the experimental part: as §5

Turning to `N.N.[Cl][Pt][Cl]` [Cisplatin, reference compound], the “IC50 (±SD) A549” value in the experiment with A549 worked out at 16.74 ± 0.68 µg/mL. Further, the IC50 with A549 is 26100 ± 520 nM; with SMMC-7721, 17800 ± 570 nM; in the experiment with BEAS-2B, above 40000 nM; in the experiment with LO2, 13800 ± 480 nM; in the experiment on HepG2, 5670 ± 100 nM; with SK-HEP-1, 21000 ± 710 nM. Also, the “IC50 (±SD) SMMC-7721” value with SMMC-7721 turned out to be 5.05 ± 0.12 µg/mL. For the same molecule, the “IC50 (±SD) HepG2” value with HepG2 came to 1.90 ± 0.13 µg/mL. Further, the “IC50 (±SD) SK-HEP-1” value with SK-HEP-1 was 8.79 ± 0.49 µg/mL.
For `CC(=O)O[C@H]1C(=O)[C@@]2(C)[C@H]([C@H](OC(=O)c3ccccc3)[C@]3(O)C[C@H](OC(=O)[C@H](O)[C@@H](NC(=O)c4ccccc4)c4ccccc4)C(C)=C1C3(C)C)[C@]1(OC(C)=O)CO[C@@H]1C[C@@H]2O` [Paclitaxel, reference compound], the IC50 was < 0.01 µg/mL and < 10 nM in the experiment with A549 (Homo sapiens); 0.12 µg/mL and 180 nM in the experiment on SMMC-7721 (Homo sapiens); above 5000 nM in the experiment with BEAS-2B (Homo sapiens); below 10 nM in the experiment on LO2 (Homo sapiens, L02); < 0.01 µg/mL and < 10 nM in the experiment with HepG2 (Homo sapiens); < 0.01 µg/mL and < 10 nM in the experiment with SK-HEP-1 (Homo sapiens, SK-HEP1).
Take `CC1CCC2(OC1)OC1CC3C4CC=C5CC(OC6OC(CO)C(OC7OC(CO)C(O)C7O)C(O)C6OC6OC(C)C(O)C(O)C6O)CCC5(C)C4CCC3(C)C1(O)C2C` [saponin 2, pennogenin-3-O-α-L-arabinofuranosyl-(1→4)-[α-L-rhamnopyranosyl-(1→2)]-β-D-glycopyranoside]: the IC50 is 1250 ± 20 nM with A549 (Homo sapiens); 1880 ± 70 nM with SMMC-7721 (Homo sapiens); 4950 ± 40 nM with BEAS-2B (Homo sapiens); 2330 ± 100 nM in the experiment on LO2 (Homo sapiens, L02); 2140 ± 10 nM with HepG2 (Homo sapiens); 1580 ± 80 nM in the experiment with SK-HEP-1 (Homo sapiens, SK-HEP1). Besides, the “cell cycle phase with increased proportion of cells compared to DMSO control” value with A549 cells [1] was “S and G2/M phases”; with HepG2 cells [3], “S and G2/M phases”. Further, the entries for the “apoptosis rate (induction of apoptosis, in words)” value in the experiment on A549 cells [2] and with HepG2 cells [4] were “strong apoptosis” and “next”, respectively.
As to `CC1CCC2(OC1)OC1CC3C4CC=C5CC(OC6OC(CO)C(OC7OC(C)C(O)C(O)C7O)C(O)C6OC6OC(C)C(O)C(O)C6O)CCC5(C)C4CCC3(C)C1C2C` [saponin 3, diosgenin-3-O-α-L-rhamnopyranosyl-(1→2)-[α-L-rhamnopyranosyl-(1→4)]-β-D-glucopyranoside], the IC50 was 1690 ± 40 nM in the experiment with A549 (Homo sapiens); 2560 ± 80 nM in the experiment on SMMC-7721 (Homo sapiens); 3070 ± 190 nM with BEAS-2B (Homo sapiens); 3780 ± 180 nM in the experiment with LO2 (Homo sapiens, L02); 3800 ± 50 nM with HepG2 (Homo sapiens); 1800 ± 70 nM with SK-HEP-1 (Homo sapiens, SK-HEP1). For the same molecule, the “cell cycle phase with increased proportion of cells compared to DMSO control” value in the experiment on A549 cells [1] is “G0/G1 phase”. Besides, the “increase of proportion of cells in S phase compared to DMSO control” value in the experiment on HepG2 cells [3] is recorded as 27.5%.
`CC1CCC2(OC1)OC1CC3C4CC=C5CC(OC6OC(CO)C(OC7OC(CO)C(O)C7O)C(O)C6OC6OC(C)C(O)C(O)C6O)CCC5(C)C4CCC3(C)C1C2C` [saponin 4, diosgenin-3-O-α-L-arabinofuranosyl-(1→4)-[α-L-rhamnopyranosyl-(1→2)]-β-D-glucopyranoside]: the IC50 in the experiment with A549 (Homo sapiens) came out at 580 ± 10 nM; in the experiment on SMMC-7721 (Homo sapiens) it was 720 ± 20 nM; with BEAS-2B (Homo sapiens) it was 1820 ± 90 nM; in the experiment with LO2 (Homo sapiens, L02) it was 850 ± 10 nM; with HepG2 (Homo sapiens) it was 1590 ± 30 nM; in the experiment on SK-HEP-1 (Homo sapiens, SK-HEP1), 660 ± 40 nM. In the experiment on A549 cells [1], the “cell cycle phase with increased proportion of cells compared to DMSO control” value is reported as “increase in the proportion of cells at the G2/M phase”. In addition, in the experiment with HepG2 cells [3], the “increase of proportion of cells in the G2/M phase compared to DMSO control” value amounted to 17.2%.
As for `CC1CCC2(OC1)OC1CC3C4CC=C5CC(OC6OC(CO)C(OC7OC(C)C(OC8OC(C)C(O)C(O)C8O)C(O)C7O)C(O)C6OC6OC(C)C(O)C(O)C6O)CCC5(C)C4CCC3(C)C1(O)C2C` [saponin 5, pennogenin 3-O-α-L-rhamnopyranosyl-(1→2)-[α-L-rhamnopyranosyl-(1→4)-α-L-rhamnopyranosyl-(1→4)]-β-D-glucopyranoside], the IC50 worked out at 900 ± 10 nM with A549 (Homo sapiens); 1200 ± 100 nM with SMMC-7721 (Homo sapiens); 940 ± 30 nM in the experiment on BEAS-2B (Homo sapiens); 900 ± 20 nM in the experiment on LO2 (Homo sapiens, L02); 1570 ± 10 nM in the experiment on HepG2 (Homo sapiens); 940 ± 60 nM with SK-HEP-1 (Homo sapiens, SK-HEP1). Further, the “apoptosis rate (induction of apoptosis, in words)” value with SMMC-7721 cells is on record as “substantial induction of apoptosis; also recorded: stronger apoptosis than the positive control DOX”; in the experiment with A549 cells [2] it was “stronger apoptosis than the positive control DOX”; with A549 cells [2] (listed as Saponin 5), “strong apoptosis”; in the experiment on HepG2 cells [4], “highest apoptosis rate; also recorded: stronger apoptosis than the positive control DOX”. The “cell cycle phase with increased proportion of cells compared to DMSO control” value in the experiment on A549 cells [1] was “S phase”; in the experiment with HepG2 cells [3], “S and G2/M phases”.

The values are drawn from paper PMC9911168, “Cytotoxic and pro-apoptotic effects of botanical drugs derived from the indigenous cultivated medicinal plant Paris polyphylla var. yunnanensis” (Frontiers in Pharmacology, 2023).
